In PMC12825302, “Structural plasticity enables broad cAn binding and dual activation of CRISPR-associated ribonuclease Cdn1” (Nucleic Acids Research, 2026) one finds stoichiometry N, Kd and EC50 data, which are given here for four molecules.

The target in experiment [1] is Cdn1 (CRISPR-associated dual-cOAs-activated ribonuclease 1) (Psychrobacter lutiphocae). Kind of experiment: SEC; size-exclusion chromatography during purification (HiLoad 16/600 Superdex 200 prep grade); no cyclic oligoadenylate added. Background: In gel filtration, larger molecules generally elute earlier.
Experiment [2] has the same target. Kind of experiment: SEC-MALS; 10 mg/ml Cdn1 in 50 mM NaH2PO4/Na2HPO4, pH 7.4, 300 mM NaCl; TSKgel G3000SWXL, 0.5 ml/min, 8°C; no cyclic oligoadenylate added.
Experiment [3] concerns the target T1, Cdn1 (Psychrobacter lutiphocae, UniProt A0ACN4YG66).
T1 construct: codon-optimized gene in pET-28a(+), E. coli BL21(DE3), Ni-NTA and SEC; homodimer (SEC-MALS); N-terminal CARF and C-terminal PD-(D/E)xK nuclease domain
T1 sequence (A0ACN4YG66 1-399): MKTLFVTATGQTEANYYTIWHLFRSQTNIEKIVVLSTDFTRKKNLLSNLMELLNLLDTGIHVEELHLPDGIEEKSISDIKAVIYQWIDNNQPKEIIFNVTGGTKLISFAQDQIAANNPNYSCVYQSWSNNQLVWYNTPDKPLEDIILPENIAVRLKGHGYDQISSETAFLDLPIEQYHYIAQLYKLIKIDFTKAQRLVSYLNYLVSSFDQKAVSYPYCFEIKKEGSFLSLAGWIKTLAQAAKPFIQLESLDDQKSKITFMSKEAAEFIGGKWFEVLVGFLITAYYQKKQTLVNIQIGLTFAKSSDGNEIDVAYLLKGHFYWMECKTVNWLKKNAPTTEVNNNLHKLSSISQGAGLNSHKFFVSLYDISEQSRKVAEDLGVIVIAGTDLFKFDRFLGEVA
Put plainly: ITC. Format: binding.

Experiment [4] addresses T1, Cdn1. Kind of experiment: FAM-labeled ssRNA (RNA1) cleavage, urea-PAGE. In kind it is biochemical.

Broadly, the stoichiometry N is a count of units in the complex or per binding partner. Consider “Cdn1 (CRISPR-associated dual-cOAs-activated ribonuclease 1) (enzyme)”, for which the stoichiometry N in experiment [1] and in experiment [2] was 2 each time. One may read the Kd as the concentration at which binding is half-saturated. Low readings indicate a tighter complex, high ones a looser complex. Turning to `Nc1ncnc2c1ncn2[C@@H]1O[C@@H]2COP(=O)(O)O[C@H]3[C@@H](O)[C@H](n4cnc5c(N)ncnc54)O[C@@H]3COP(=O)(O)O[C@H]3[C@@H](O)[C@H](n4cnc5c(N)ncnc54)O[C@@H]3COP(=O)(O)O[C@H]2[C@H]1O` [cA3], in experiment [3], the Kd turned out to be 23 ± 8.7 nM.

The term EC50 denotes the concentration needed to bring the measured effect to its halfway point. Molecule `Nc1ncnc2c1ncn2[C@@H]1O[C@@H]2COP(=O)(O)O[C@H]3[C@@H](O)[C@H](n4cnc5c(N)ncnc54)O[C@@H]3COP(=O)(O)O[C@H]3[C@@H](O)[C@H](n4cnc5c(N)ncnc54)O[C@@H]3COP(=O)(O)O[C@H]3[C@@H](O)[C@H](n4cnc5c(N)ncnc54)O[C@@H]3COP(=O)(O)O[C@H]3[C@@H](O)[C@H](n4cnc5c(N)ncnc54)O[C@@H]3COP(=O)(O)O[C@H]3[C@@H](O)[C@H](n4cnc5c(N)ncnc54)O[C@@H]3COP(=O)(O)O[C@H]2[C@H]1O` [cA6] displayed a dissociation constant (Kd) in experiment [3] of 740 ± 205 nM. Besides, the response in experiment [4] was half-maximal at 670 ± 98.8 nM (EC50). In experiment [3], `Nc1ncnc2c1ncn2[C@@H]1O[C@@H]2COP(=O)(O)O[C@H]3[C@@H](O)[C@H](n4cnc5c(N)ncnc54)O[C@@H]3COP(=O)(O)O[C@H]3[C@@H](O)[C@H](n4cnc5c(N)ncnc54)O[C@@H]3COP(=O)(O)O[C@H]3[C@@H](O)[C@H](n4cnc5c(N)ncnc54)O[C@@H]3COP(=O)(O)O[C@H]2[C@H]1O` [cA4] gave a dissociation constant (Kd) of 54.6 ± 25.1 nM. In experiment [4], this molecule had an EC50 of 2.17 ± 0.68 nM.
